# Measured values taken from US10238670B2, “9-aminomethyl minocycline compounds and methods of use thereof in urinary tract infection (UTI) treatment” (Paratek Pharmaceuticals, Inc., priority 2016, dated 2019).
# Like-named read-outs stand apart in the source and are kept apart here.
# Tests used:
# human plasma protein = details: cited from earlier work
# E. cloacae CeftazS = experiment: In vitro MIC, 2010 surveillance isolates; type: cell-based
# K. pneumoniae ESBL+ = experiment: In vitro MIC, 2010 surveillance isolates; type: cell-based, Klebsiella pneumoniae
# MSSA = experiment: In vitro MIC, 2010 surveillance isolates; type: cell-based
# E. faecalis VNS = experiment: In vitro MIC, 2010 surveillance isolates; type: cell-based
# K. oxytoca = experiment: In vitro MIC, 2010 surveillance isolates; type: cell-based
# A. baumanii = experiment: In vitro MIC, 2010 surveillance isolates; type: cell-based; details: for % R (resistance): CLSI breakpoints
# E. faecium VNS = experiment: In vitro MIC, 2010 surveillance isolates; type: cell-based
# MR CoNS = experiment: In vitro MIC, 2010 surveillance isolates; type: cell-based, Coagulase-Negative Staphylococcus
# E. coli ESBL+ = experiment: In vitro MIC, 2010 surveillance isolates; type: cell-based, Escherichia coli
# E. cloacae CeftazR = experiment: In vitro MIC, 2010 surveillance isolates; type: cell-based
# K. pneumoniae ESBL− = experiment: In vitro MIC, 2010 surveillance isolates; type: cell-based, Klebsiella pneumoniae
# E. coli ESBL− = experiment: In vitro MIC, 2010 surveillance isolates; type: cell-based, Escherichia coli
# Acinetobacter spp = experiment: In vitro MIC, 2010 surveillance isolates; type: cell-based; details: for % R (resistance): CLSI breakpoints
# MS CoNS = experiment: In vitro MIC, 2010 surveillance isolates; type: cell-based, Coagulase-Negative Staphylococcus
# Enterobacter spp = experiment: In vitro MIC, 2010 surveillance isolates; type: cell-based
# E. faecium VS = experiment: In vitro MIC, 2010 surveillance isolates; type: cell-based
# MRSA = experiment: In vitro MIC, 2010 surveillance isolates; type: cell-based
# E. faecalis VS = experiment: In vitro MIC, 2010 surveillance isolates; type: cell-based
molecule,measurement,setting,value
CCCCCCCCCC(=O)N[C@@H](Cc1c[nH]c2ccccc12)C(=O)N[C@H](CC(N)=O)C(=O)N[C@@H](CC(=O)O)C(=O)N[C@@H]1C(=O)NCC(=O)N[C@@H](CCCN)C(=O)N[C@@H](CC(=O)O)C(=O)N[C@H](C)C(=O)N[C@@H](CC(=O)O)C(=O)NCC(=O)N[C@H](CO)C(=O)N[C@@H]([C@H](C)CC(=O)O)C(=O)N[C@@H](CC(=O)c2ccccc2N)C(=O)O[C@@H]1C [Daptomycin],protein bound in human plasma,human plasma protein,> 75%
CC(=O)NC[C@H]1CN(c2ccc(N3CCOCC3)c(F)c2)C(=O)O1 [Linezolid],protein bound in human plasma,"human plasma protein; human, plasma",31%
CN(C)c1ccc(O)c2c1C[C@H]1C[C@H]3[C@H](N(C)C)C(O)=C(C(N)=O)C(=O)[C@@]3(O)C(O)=C1C2=O [Minocycline],"human plasma protein binding, Mean","human plasma protein; human, plasma",76%
Nc1nc(-n2cc(C(=O)O)c(=O)c3cc(F)c(N4CC(O)C4)c(Cl)c32)c(F)cc1F [delafloxacin],protein bound in human plasma,human plasma protein,> 75%
Cn1nnc(-c2ccc(-c3ccc(N4C[C@H](CO)OC4=O)cc3F)cn2)n1 [tedizolid],protein bound in human plasma,human plasma protein,> 75%
piperacillin-tazobactam [Pip/tazo],% R (resistance),"E. cloacae CeftazS; Asia/Pac, Eucast breakpoints",1%
same,MIC90,"E. cloacae CeftazS; Asia/Pac, N=100",4 µg/mL
same,% R (resistance),"E. cloacae CeftazS; Europe, Eucast breakpoints",1.1%
same,MIC90,"E. cloacae CeftazS; Europe, N=183",4 µg/mL
same,% R (resistance),"E. cloacae CeftazS; L. Amer, CLSI breakpoints",3.5%
same,MIC90,"E. cloacae CeftazS; L. Amer, N=57",16 µg/mL
same,% R (resistance),"E. cloacae CeftazS; N America, CLSI breakpoints",0.5%
same,MIC90,"E. cloacae CeftazS; N America, N=210",4 µg/mL
same,% R (resistance),"K. pneumoniae ESBL+; Asia/Pac, Eucast breakpoints",47.6%
same,MIC90,"K. pneumoniae ESBL+; Asia/Pac, N=124",> 64 µg/mL
same,% R (resistance),"K. pneumoniae ESBL+; Europe, Eucast breakpoints",57%
same,MIC90,"K. pneumoniae ESBL+; Europe, N=151",> 64 µg/mL
same,% R (resistance),"K. pneumoniae ESBL+; L. Amer, CLSI breakpoints",51.7%
same,MIC90,"K. pneumoniae ESBL+; L. Amer, N=209",> 64 µg/mL
same,% R (resistance),"K. pneumoniae ESBL+; N America, CLSI breakpoints",51.9%
same,MIC90,"K. pneumoniae ESBL+; N America, N=108",> 64 µg/mL
same,% R (resistance),"MSSA; Asia/Pac, Eucast breakpoints",0%
same,MIC90,"MSSA; Asia/Pac, N=641",2 µg/mL
same,% R (resistance),"MSSA; Europe, Eucast breakpoints",0%
same,MIC90,"MSSA; Europe, N=2109",2 µg/mL
same,% R (resistance),"MSSA; L. Amer, CLSI breakpoints",0.2%
same,MIC90,"MSSA; L. Amer, N=590",2 µg/mL
same,% R (resistance),"MSSA; N America, CLSI breakpoints",0.1%
same,MIC90,"MSSA; N America, N=2373",2 µg/mL
same,"range of MICs (N <10, shown instead of MIC90)","E. faecalis VNS; Asia/Pac, N=1",8
same,% R (resistance),"E. faecalis VNS; Europe, Eucast breakpoints",0%
same,"range of MICs (N <10, shown instead of MIC90)","E. faecalis VNS; Europe, N=8",4-16
same,% R (resistance),"E. faecalis VNS; L. Amer, CLSI breakpoints",0%
same,"range of MICs (N <10, shown instead of MIC90)","E. faecalis VNS; L. Amer, N=7",4-8
same,% R (resistance),"E. faecalis VNS; N America, CLSI breakpoints",0%
same,MIC90,"E. faecalis VNS; N America, N=38",8 µg/mL
same,% R (resistance),"K. oxytoca; Asia/Pac, Eucast breakpoints",17.6%
same,MIC90,"K. oxytoca; Asia/Pac, N=17",64 µg/mL
same,% R (resistance),"K. oxytoca; Europe, Eucast breakpoints",13.3%
same,MIC90,"K. oxytoca; Europe, N=158",> 64 µg/mL
same,% R (resistance),"K. oxytoca; L. Amer, CLSI breakpoints",16%
same,MIC90,"K. oxytoca; L. Amer, N=25",> 64 µg/mL
same,% R (resistance),"K. oxytoca; N America, CLSI breakpoints",7.9%
same,MIC90,"K. oxytoca; N America, N=177",16 µg/mL
same,MIC90,"A. baumanii; Asia/Pac, N=275",> 64 µg/mL
same,MIC90,"A. baumanii; Europe, N=145",> 64 µg/mL
same,% R (resistance),A. baumanii; L. Amer,88.7%
same,MIC90,"A. baumanii; L. Amer, N=275",> 64 µg/mL
same,% R (resistance),A. baumanii; N America,70.1%
same,MIC90,"A. baumanii; N America, N=154",> 64 µg/mL
same,MIC90,"E. faecium VNS; Asia/Pac, N=24",> 64 µg/mL
same,MIC90,"E. faecium VNS; Europe, N=71",> 64 µg/mL
same,MIC90,"E. faecium VNS; L. Amer, N=41",> 64 µg/mL
same,MIC90,"E. faecium VNS; N America, N=478",> 64 µg/mL
same,% R (resistance),"MR CoNS; Asia/Pac, Eucast breakpoints",100%
same,MIC90,"MR CoNS; Asia/Pac, N=77",> 64 µg/mL
same,% R (resistance),"MR CoNS; Europe, Eucast breakpoints",100%
same,MIC90,"MR CoNS; Europe, N=510",> 64 µg/mL
same,% R (resistance),"MR CoNS; L. Amer, CLSI breakpoints",100%
same,MIC90,"MR CoNS; L. Amer, N=301",> 64 µg/mL
same,% R (resistance),"MR CoNS; N America, CLSI breakpoints",100%
same,MIC90,"MR CoNS; N America, N=461",16 µg/mL
same,% R (resistance),"E. coli ESBL+; Asia/Pac, Eucast breakpoints",7.3%
same,MIC90,"E. coli ESBL+; Asia/Pac, N=219",16 µg/mL
same,% R (resistance),"E. coli ESBL+; Europe, Eucast breakpoints",24.1%
same,MIC90,"E. coli ESBL+; Europe, N=274",> 64 µg/mL
same,% R (resistance),"E. coli ESBL+; L. Amer, CLSI breakpoints",7.7%
same,MIC90,"E. coli ESBL+; L. Amer, N=168",64 µg/mL
same,% R (resistance),"E. coli ESBL+; N America, CLSI breakpoints",6%
same,MIC90,"E. coli ESBL+; N America, N=134",64 µg/mL
same,% R (resistance),"E. cloacae CeftazR; Asia/Pac, Eucast breakpoints",55.6%
same,MIC90,"E. cloacae CeftazR; Asia/Pac, N=63",> 64 µg/mL
same,% R (resistance),"E. cloacae CeftazR; Europe, Eucast breakpoints",62.5%
same,MIC90,"E. cloacae CeftazR; Europe, N=72",> 64 µg/mL
same,% R (resistance),"E. cloacae CeftazR; L. Amer, CLSI breakpoints",23.8%
same,MIC90,"E. cloacae CeftazR; L. Amer, N=42",> 64 µg/mL
same,% R (resistance),"E. cloacae CeftazR; N America, CLSI breakpoints",48.1%
same,MIC90,"E. cloacae CeftazR; N America, N=77",> 64 µg/mL
same,% R (resistance),"K. pneumoniae ESBL−; Asia/Pac, Eucast breakpoints",2.1%
same,MIC90,"K. pneumoniae ESBL−; Asia/Pac, N=189",8 µg/mL
same,% R (resistance),"K. pneumoniae ESBL−; Europe, Eucast breakpoints",0%
same,MIC90,"K. pneumoniae ESBL−; Europe, N=361",8 µg/mL
same,% R (resistance),"K. pneumoniae ESBL−; L. Amer, CLSI breakpoints",1.9%
same,MIC90,"K. pneumoniae ESBL−; L. Amer, N=160",4 µg/mL
same,% R (resistance),"K. pneumoniae ESBL−; N America, CLSI breakpoints",0.7%
same,MIC90,"K. pneumoniae ESBL−; N America, N=671",8 µg/mL
same,% R (resistance),"E. coli ESBL−; Asia/Pac, Eucast breakpoints",2.5%
same,MIC90,"E. coli ESBL−; Asia/Pac, N=282",4 µg/mL
same,% R (resistance),"E. coli ESBL−; Europe, Eucast breakpoints",5.3%
same,MIC90,"E. coli ESBL−; Europe, N=1533",4 µg/mL
same,% R (resistance),"E. coli ESBL−; L. Amer, CLSI breakpoints",1.5%
same,MIC90,"E. coli ESBL−; L. Amer, N=389",4 µg/mL
same,% R (resistance),"E. coli ESBL−; N America, CLSI breakpoints",0.9%
same,MIC90,"E. coli ESBL−; N America, N=1172",4 µg/mL
same,MIC90,"Acinetobacter spp; Europe, N=43",> 64 µg/mL
same,% R (resistance),Acinetobacter spp; L. Amer,55.6%
same,% R (resistance),Acinetobacter spp; N America,19%
same,MIC90,"Acinetobacter spp; N America, N=42",> 64 µg/mL
same,% R (resistance),"MS CoNS; Asia/Pac, Eucast breakpoints",0%
same,MIC90,"MS CoNS; Asia/Pac, N=18",1 µg/mL
same,% R (resistance),"MS CoNS; Europe, Eucast breakpoints",0%
same,MIC90,"MS CoNS; Europe, N=185",≤ 0.5 µg/mL
same,% R (resistance),"MS CoNS; L. Amer, CLSI breakpoints",0%
same,MIC90,"MS CoNS; L. Amer, N=67",1 µg/mL
same,% R (resistance),"MS CoNS; N America, CLSI breakpoints",0%
same,MIC90,"MS CoNS; N America, N=191",≤ 0.5 µg/mL
same,% R (resistance),"Enterobacter spp; Asia/Pac, Eucast breakpoints",19.2%
same,MIC90,"Enterobacter spp; Asia/Pac, N=52",32 µg/mL
same,% R (resistance),"Enterobacter spp; Europe, Eucast breakpoints",32.9%
same,MIC90,"Enterobacter spp; Europe, N=82",64 µg/mL
same,% R (resistance),"Enterobacter spp; L. Amer, CLSI breakpoints",7.1%
same,MIC90,"Enterobacter spp; L. Amer, N=42",64 µg/mL
same,% R (resistance),"Enterobacter spp; N America, CLSI breakpoints",4%
same,MIC90,"Enterobacter spp; N America, N=101",64 µg/mL
same,MIC90,"E. faecium VS; Asia/Pac, N=106",> 64 µg/mL
same,MIC90,"E. faecium VS; Europe, N=303",> 64 µg/mL
same,MIC90,"E. faecium VS; L. Amer, N=51",> 64 µg/mL
same,MIC90,"E. faecium VS; N America, N=115",> 64 µg/mL
same,% R (resistance),"MRSA; Asia/Pac, Eucast breakpoints",100%
same,MIC90,"MRSA; Asia/Pac, N=428",> 64 µg/mL
same,% R (resistance),"MRSA; Europe, Eucast breakpoints",100%
same,MIC90,"MRSA; Europe, N=750",> 64 µg/mL
same,% R (resistance),"MRSA; L. Amer, CLSI breakpoints",100%
same,MIC90,"MRSA; L. Amer, N=506",> 64 µg/mL
same,% R (resistance),"MRSA; N America, CLSI breakpoints",100%
same,MIC90,"MRSA; N America, N=2508",64 µg/mL
same,% R (resistance),"E. faecalis VS; Asia/Pac, Eucast breakpoints",0%
same,MIC90,"E. faecalis VS; Asia/Pac, N=214",8 µg/mL
same,% R (resistance),"E. faecalis VS; Europe, Eucast breakpoints",0%
same,MIC90,"E. faecalis VS; Europe, N=669",8 µg/mL
same,% R (resistance),"E. faecalis VS; L. Amer, CLSI breakpoints",0%
same,MIC90,"E. faecalis VS; L. Amer, N=290",8 µg/mL
same,% R (resistance),"E. faecalis VS; N America, CLSI breakpoints",0%
same,MIC90,"E. faecalis VS; N America, N=863",8 µg/mL
